Literature values in patent US20220370561A1, “LITHIUM AS A MONOTHERAPY AND/OR STEM CELL ADJUVANT THERAPY FOR PULMONARY FIBROSIS” (Therapeutic Solutions International, Inc., priority 2021, published 2022).
Read-outs that look alike come from different tables or passages of the source.

Legend:
[1] = danazol orally 800 mg per day
mesenchymal stem cells = settings: culture of cells with valproic acid
p16/p21 pathway = settings: in vitro pre-mature senescence model
[2] = 12 months, exploratory analysis

elevated liver-enzyme levels of grade 2 or less, patients [1]	muscle cramps of grade 2 or less, patients [1]	Structure (SMILES)	mean increase in telomere length (telomere length; 6 months, exploratory analysis)	patients with increase in telomere length (telomere length; 6 months, exploratory analysis)	mean increase in telomere length (telomere length; [2])	patients with increase in telomere length (telomere length; [2])	mean increase in telomere length (telomere length; 24 months compared with baseline)	patients with a gain in telomere length compared with baseline (telomere length; 24 months, 11 of 12)	telomere attrition in patients evaluable for the primary end point (telomere length; danazol orally 800 mg per day, 24 months)	patients meeting the primary efficacy end point (20% reduction in annual rate of telomere attrition), intention-to-treat (telomere length; danazol orally 800 mg per day, 24 months, 12 of 27 patients)	hematologic responses (3 months, 19 of 24 evaluable patients)	hematologic responses (24 months, 10 of 12 evaluable patients)	immune regulatory and metabolic properties of mesenchymal stem cells (mesenchymal stem cells)	G2/M phase blockage derived from the senescence stress (p16/p21 pathway)	cell proliferation (p16/p21 pathway)	apoptosis (p16/p21 pathway; through suppression of the p16/p21 pathway)
41%	33%	C#C[C@]1(O)CC[C@H]2[C@@H]3CCC4=Cc5oncc5C[C@]4(C)[C@H]3CC[C@@]21C [danazol]	175 bp	16 of 21	360 bp	16 of 18	386 bp	92%	reduced in all 12 patients	44%	79%	83%				
		CCCC(CCC)C(=O)O [valproic acid]											enhanced	inhibited the G2/M phase blockage	increased cell proliferation	inhibited apoptosis
